Results on 19 compounds are retold here after patent publication EP1147080B1 (Wyeth Holdings Corporation, priority 1999, dated 2000).

One test addresses MMP-9 (Homo sapiens, UniProt P14780). As to the kind of experiment: MMP-9 inhibition (thiopeptide or fluorescent peptide substrate). The settings on record: for inhibition at 10 µM: read-out: MMP9.
A further test deals with T1, MMP-1 (Homo sapiens, UniProt P03956).
T1 sequence (P03956 100-469): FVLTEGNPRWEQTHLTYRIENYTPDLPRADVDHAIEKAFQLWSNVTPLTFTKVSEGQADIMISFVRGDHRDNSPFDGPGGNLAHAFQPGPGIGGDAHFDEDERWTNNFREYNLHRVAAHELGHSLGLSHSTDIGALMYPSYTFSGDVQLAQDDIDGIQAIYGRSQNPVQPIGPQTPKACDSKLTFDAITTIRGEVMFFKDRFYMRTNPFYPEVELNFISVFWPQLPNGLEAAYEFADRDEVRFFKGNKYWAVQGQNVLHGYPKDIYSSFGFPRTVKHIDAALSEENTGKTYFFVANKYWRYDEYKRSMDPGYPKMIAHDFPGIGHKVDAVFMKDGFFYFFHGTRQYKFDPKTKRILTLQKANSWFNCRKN
Put plainly: MMP-1 inhibition (thiopeptide or fluorescent peptide substrate). The settings on record: for inhibition at 10 µM: read-out: MMP1.

The next test relates to THP-1 cells. As to the kind of experiment: Human monocytic THP-1 cell differentiation assay for soluble proteins (THP soluble protein assay), LPS-stimulated, TNF-α ELISA. The class given is cell-based. To be noted: Homo sapiens, THP-1; at 3 uM; percent change from vehicle positive control; read-out: TNFalpha at 3 uM) THP (percent change). An excerpt: Mitogenic stimulation of THP-1 cells cause differentiation into macrophage like cells with concomitant secretion of tumor necrosis factor (TNF-a) and TNF receptor (TNF-R p75/80 and TNF-R p55/60) and Interleukin-8 (IL-8), among other proteins. In addition, non-stimulated THP-1 cells shed both the p75/80 and the p55/60 receptors over time. The release of membrane bound TNF-a and possibly TNF-R p75/80 and TNF-R p55/60, but not IL-8, is mediated by an enzyme called TNF-α converting enzyme or TACE.
THP-1 cells (from ATCC) are a human monocytic cell line which were obtained from the peripheral blood of a person with acute monocytic leukemia. They can be grown in culture and differentiated into macrophage like cells by stimulation with mitogens.
Each vial of cells are cultured for about two weeks prior to being used for an assay and then are used for only 4 to 6 weeks to screen compounds.
Cell exposure to DMSO was limited to 0.1 % final concentration. […] Compounds can be evaluated for their effect on basal (non-stimulated) shedding of the receptors by replacing the LPS with […] of THP-1 media. Plates are placed into an incubator set at 5% CO2 and at 37°C. After 4 hours of incubation, […] of tissue culture supernatant (TCS) is removed for use in an TNF-α ELISA. Following 24 hours of incubation, […] of TCS is removed and used for analysis in TNF-R p75/80, TNF-R p55/60 and IL-8 ELISAs.
In addition, at the 24 hours timepoint, and the cells for each treatment group are collected by resuspension in 500 µl/well of THP-1 media and transferred into a FACS tube. […] The samples are run on a Becton Dickinson FaxCaliber FLOW cytometry machine and the amount of dye taken up by each cell is measured in the high red wavelength (FL3). Only cells with compromised membranes (dead or dying) can take up PI. The percent of live cells is calculated by the number of cells not stained with PI, divided by the total number of cells in the sample. The viability values calculated for the drug treated groups were compared to the viability value calculated for the vehicle treated mitogen stimulated group ("vehicle positive control") to determine the "percent change from control". This "percent change from control" value is an indicator of drug toxicity.
The quantity of soluble TNF-α, TNF-R p75/80 and TNF-R p55/60 and IL-8 in the TCS of the THP-1 cell cultures are obtained with commercially available ELISAs from R&D Systems, by extrapolation from a standard curve generated with kit standards. The number of cells that either take up or exclude PI are measured by the FLOW cytometry machine and visualized by histograms using commercially available Cytologic software for each treatment group including all controls.
Biological variability in the magnitude of the response of THP-1 cell cultures requires that experiments be compared on the basis of percent change from "vehicle positive control" for each drug concentration. Percent change in each soluble protein evaluated from the "vehicle positive control" was calculated for each compound concentration with the following formula: % Change =(pg/ml (compound) - pg/ml (veh pos control))/(pg/ml (veh pos control) - pg/ml (veh neg control))x 100 [formula]
For the soluble protein (TNF-a, p75/80, p55/60, IL-8) studies under stimulated conditions, the mean pg/ml of duplicate wells were determined and the results expressed as percent change from "vehicle positive control". For the soluble protein (p75/80 and p55/60 receptors) studies under non-stimulated conditions, the mean pg/ml of duplicate wells were determined and the results expressed as percent change from […] utilizing the following formula: % Change =(pg/ml (compound neg control) - pg/ml (veh neg control))/(pg/ml (veh neg control))X 100 [formula]
IC50 values for each compound are calculated by non-linear regression analysis using customized software utilizing the JUMP statistical package.

Another test addresses MMP-13 (Homo sapiens, UniProt P45452). Put plainly: MMP-13 inhibition (thiopeptide or fluorescent peptide substrate). The class given is biochemical. The settings on record: for inhibition at 10 µM / MMP13: % @ 10µM per footnote a; for inhibition at 1 µM: % at 1 um (specified in cell). An excerpt:
Alternatively, a fluorescent peptide substrate is used.

Test [1] deals with TNF-α converting enzyme (TACE) (Homo sapiens, UniProt P78536). As to the kind of experiment: Test procedure for measuring TACE inhibition (fluorescent peptidyl substrate). The class given is biochemical. To be noted: for IC50: second table.

The structures appear in SMILES notation. Like-named read-outs stand apart in the source and are kept apart here.

Sequence of MMP-9 (P14780 94-707): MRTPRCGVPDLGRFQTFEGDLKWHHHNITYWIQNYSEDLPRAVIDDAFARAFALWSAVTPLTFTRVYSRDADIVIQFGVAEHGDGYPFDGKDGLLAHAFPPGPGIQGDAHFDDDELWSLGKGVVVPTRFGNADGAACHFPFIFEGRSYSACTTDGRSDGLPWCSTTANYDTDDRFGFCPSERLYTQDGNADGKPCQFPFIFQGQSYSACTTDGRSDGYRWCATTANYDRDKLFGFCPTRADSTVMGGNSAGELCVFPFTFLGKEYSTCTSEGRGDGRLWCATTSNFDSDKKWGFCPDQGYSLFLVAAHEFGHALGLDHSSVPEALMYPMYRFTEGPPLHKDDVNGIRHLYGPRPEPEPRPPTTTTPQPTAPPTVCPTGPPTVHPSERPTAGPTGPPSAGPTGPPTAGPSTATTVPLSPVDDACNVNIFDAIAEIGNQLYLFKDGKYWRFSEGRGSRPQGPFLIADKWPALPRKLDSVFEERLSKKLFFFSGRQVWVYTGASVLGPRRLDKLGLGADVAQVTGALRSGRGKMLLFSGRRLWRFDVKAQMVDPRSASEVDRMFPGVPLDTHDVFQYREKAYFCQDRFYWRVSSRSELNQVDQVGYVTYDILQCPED
Sequence of TNF-α converting enzyme (TACE) (P78536 215-824): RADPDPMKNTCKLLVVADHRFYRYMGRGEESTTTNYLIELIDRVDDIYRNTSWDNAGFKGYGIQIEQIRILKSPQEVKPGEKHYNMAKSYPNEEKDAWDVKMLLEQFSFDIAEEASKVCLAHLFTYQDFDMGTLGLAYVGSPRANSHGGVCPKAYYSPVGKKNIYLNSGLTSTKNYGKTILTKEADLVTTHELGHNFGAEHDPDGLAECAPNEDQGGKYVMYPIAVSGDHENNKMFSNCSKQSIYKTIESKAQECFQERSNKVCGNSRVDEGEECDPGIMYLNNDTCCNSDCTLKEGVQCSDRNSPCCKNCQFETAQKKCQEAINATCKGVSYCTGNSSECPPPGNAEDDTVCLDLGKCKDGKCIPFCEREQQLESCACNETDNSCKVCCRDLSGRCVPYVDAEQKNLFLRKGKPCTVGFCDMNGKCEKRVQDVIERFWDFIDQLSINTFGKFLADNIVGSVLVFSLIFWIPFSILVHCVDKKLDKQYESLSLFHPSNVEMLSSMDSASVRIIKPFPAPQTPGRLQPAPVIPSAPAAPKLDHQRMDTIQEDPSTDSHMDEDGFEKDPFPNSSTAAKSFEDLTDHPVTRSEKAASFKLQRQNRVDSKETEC
Procedure for MMP-9: The enzyme activity is measured by the rate of the color increase. The thiopeptide substrate is made up fresh as a 20 mM stock in 100% DMSO and the DTNB is dissolved in 100% DMSO as a 100 mM stock and stored in the dark at room temperature. Both the substrate and DTNB are diluted together to 1 mM with substrate buffer (50 mM HEPES pH 7.5, 5 mM CaCl2) before use. The stock of enzyme is diluted with buffer (50 mM HEPES, pH 7.5, 5 mM CaCl2, 0.02% Brij) to the desired final concentration.
Alternatively, a fluorescent peptide substrate is used. In this test procedure, the peptide substrate contains a fluorescent group and a quenching group. Upon cleavage of the substrate by an MMP, the fluorescence that is generated is quantitated on the fluorescence plate reader. The assay is run in HCBC assay buffer (50mM HEPES, pH 7.0, 5 mM Ca^+2, 0.02% Brij, 0.5% Cysteine), with human recombinant MMP-1, MMP-9, or MMP-13. The substrate is dissolved in methanol and stored frozen in 1 mM aliquots. For the assay, substrate and enzymes are diluted in HCBC buffer to the desired concentrations. Compounds are added to the 96 well plate containing enzyme and the reaction is started by the addition of substrate.
For either the thiopeptide or fluorescent peptide test procedures, the slope of the line is calculated and represents the reaction rate. […] The mean (x±sem) of the control rate is calculated and compared for statistical significance (p<0.05) with drug-treated rates using Dunnett's multiple comparison test.

At MMP-9, `CC#CCOc1ccc([S+]([O-])[C@@H](C(=O)NO)c2ccc(OC)cc2)cc1` (single isomer, unassigned) [Example 77] gave an MMP9 of 45.40%. Besides, the MMP1 at MMP-1 (% @ 10µM per footnote a) worked out at 17.50%.

Take `CC#CCOc1ccc([S+]([O-])[C@H](C(=O)NO)c2ccc(OC)cc2)cc1` (single isomer, unassigned) [Example 78]: the inhibition at 3 µM in the test with THP-1 cells was 13%. For the same compound, the figures for the inhibition at 10 µM at MMP-13 (read-out: MMP13), at MMP-9 and on MMP-1 were 54.5%, 32.7% and 5.9%, respectively.

Compound `CC#CCOc1ccc([S+]([O-])C(C(=O)NO)c2ccccc2)cc1` (single isomer, unassigned) [Example 113, S-2-{[4-(2-butynyloxy)phenyl]sulfinyl}-2-phenyl-N-hydroxyacetamide] displayed an MMP13 at MMP-13 of 59%. In addition, on MMP-9, the MMP9 was found to be 25.70%. At MMP-1, this compound showed an MMP1 of 6.20%.

As for `CC#CCOc1ccc(S(=O)(=O)C(CCc2ccc(OCCN3CCCCC3)cc2)C(=O)NO)cc1` (stereo not shown) [Example 71], the inhibition at 3 µM in the test with THP-1 cells is 11%. The IC50 on MMP-13 (IC50, read-out: MMP13) worked out at 894 nM; on MMP-9, 2510 nM; at MMP-1, 10000 nM.

As for `CC#CCOc1ccc(S(=O)(=O)C(C(=O)NO)c2ccc(OC)cc2)cc1` (stereo not shown) [Example 79, 2-{[4-(2-butynyloxy)phenyl]sulfonyl}-N-hydroxy-2-(4-methoxyphenyl) acetamide], the inhibition at 10 µM is 56.8% at MMP-13 (read-out: MMP13), 27.3% on MMP-9 and 23.3% on MMP-1. Besides, the IC50 in test [1] (IC50 (nM) per footnote a) amounted to 48.1 nM.

Turning to `CC#CCOc1ccc(S(=O)(=O)C(C(=O)NO)c2cccc3ccccc23)cc1` (stereo not shown) [Example 94, 2-{[4-(2-Butynyloxy)phenyl]sulfonyl}-N-hydroxy-2-(1-naphthyl)acetamide], in the test with THP-1 cells, the inhibition at 3 µM was -11%. For the same compound, the inhibition at 10 µM at MMP-13 (read-out: MMP13) stood at 34%; on MMP-1, 8%. This compound had an IC50 in test [1] (IC50 (nM) per footnote a) of 423 nM.

`CC#CCOc1ccc([S+]([O-])C(C(=O)NO)c2ccc(F)cc2)cc1` (stereo not shown) [Example 96] yielded an MMP13 on MMP-13 of 53.40%. The same compound registered an MMP9 on MMP-9 (% @ 10µM per footnote a) of 0%. Further, the MMP1 at MMP-1 (% @ 10µM per footnote a) came to 18.40%.

For `CC#CCOc1ccc(SC(C(=O)NO)c2ccccc2OC)cc1` (stereo not shown) [Example 98, 2-(2-methoxyphenyl)-2-{[4-(2-butynyloxy)phenyl]sulfanyl}-N-hydroxyacetamide], the inhibition at 3 µM in the test on THP-1 cells stood at 1%. Besides, the inhibition at 10 µM at MMP-13 (read-out: MMP13) was determined as 59%; on MMP-1, 23%. In test [1] (IC50 (nM) per footnote a), this compound had an IC50 of 464 nM.

Turning to `CC#CCOc1ccc([S+]([O-])C(C(=O)NO)c2ccccc2OC)cc1` (stereo not shown) [Example 99, 2-(2-methoxyphenyl)-2-{[4-(2-butynyloxy)phenyl]sulfinyl}-N-hydroxyacetamide], the inhibition at 3 µM in the test on THP-1 cells amounted to 1%. Also, the inhibition at 10 µM was found to be 33.6% at MMP-13 (read-out: MMP13) and 0% on MMP-1. The same compound gave an IC50 in test [1] of 1100 nM.

Consider `CC#CCOc1ccc(S(=O)(=O)C(C(=O)NO)c2ccc(OCC)cc2)cc1` (stereo not shown) [Example 102], for which the inhibition at 3 µM in the test on THP-1 cells amounted to 10%. Besides, the inhibition at 10 µM at MMP-13 (read-out: MMP13) is 71%; at MMP-1 it was 26%. In test [1] (IC50 (nM) per footnote a), this compound yielded an IC50 of 82 nM.

Turning to `CC#CCOc1ccc(S(=O)(=O)C(C(=O)NO)c2cccc(Br)c2)cc1` (stereo not shown) [Example 106, 2-{[4-(2-Butynyloxy)phenyl]sulfonyl}-2-(3-bromophenyl)-N-hydroxyacetamide], the inhibition at 3 µM in the test on THP-1 cells was -5%. In addition, the inhibition at 10 µM at MMP-13 (read-out: MMP13) was determined as 56%; on MMP-1, 0%. The compound also showed an IC50 in test [1] (IC50 (nM) per footnote a) of 65 nM.

Consider `CC#CCOc1ccc([S+]([O-])C(C(=O)NO)C(C)C)cc1` (stereo not shown) [Example 108, R-2-{[4-(2-butynylaxy)phenyl]sulfinyl}-2-isopropyl-N-hydroxyacetamide], for which the IC50 against MMP-9 was 399 nM; on MMP-1 it was 6480 nM.

With `CC#CCOc1ccc(SC(C(=O)NO)c2ccc3ccccc3c2)cc1` (stereo not shown) [Example 114, 2-{[4-(2-Butynyloxy)phenyl]sulfanyl}-2-(2-naphthyl)-N-hydroxyacetamide], the inhibition at 3 µM in the test on THP-1 cells was 12%. The inhibition at 10 µM at MMP-13 (read-out: MMP13) was determined as 30.5%; in test [1] (% @ 10µM per footnote a, read-out: TACE IC50), 40.9%; at MMP-1, 3.5%.

Consider `CC#CCOc1ccc([S+]([O-])C(C(=O)NO)c2ccc3ccccc3c2)cc1` (stereo not shown) [Example 115, 2-{[4-(2-butynyloxy)phenyl]sulfinyl}-2-(2-naphthyl)-N-hydroxyacetamide], for which the inhibition at 3 µM in the test with THP-1 cells came to 11%. For the same compound, at MMP-13 (read-out: MMP13), the inhibition at 1 µM amounted to 45.1%. The compound also yielded an IC50 in test [1] (IC50 (nM) per footnote a) of 141 nM. The inhibition at 10 µM at MMP-1 came to 4.11%.

In the case of `CC#CCOc1ccc(S(=O)(=O)C(C(=O)NO)c2ccc3ccccc3c2)cc1` (stereo not shown) [Example 116, 2-{[4-(2-butynyloxy)phenyl]sulfonyl}-2-(2-naphthyl)-N-hydroxyacetamide], the inhibition at 3 µM in the test on THP-1 cells was determined as 7%. In addition, at MMP-13 (read-out: MMP13), the inhibition at 1 µM was determined as 33.6%. Moreover, in test [1] (IC50 (nM) per footnote a), the IC50 amounted to 495 nM. Besides, at MMP-1, the inhibition at 10 µM stood at 5.6%.

As to `CC#CCOc1ccc(S(=O)(=O)C(C(=O)NO)C2CCN(C(=O)OC(C)(C)C)CC2)cc1` (stereo not shown) [Example 117, Tert-butyl-4-[1-{[4-(2-butynyloxy)phenyl]sulfonyl}-2-(hydroxyamino)-2-oxoethyl]-1-piperidine carboxylate], in the test on THP-1 cells, the inhibition at 3 µM stood at 50%. The results for the inhibition at 10 µM at MMP-13 (read-out: MMP13) and on MMP-1 were 52% and 22%, respectively. Also, the IC50 in test [1] (IC50 (nM) per footnote a) came to 190 nM.

With `CC#CCOc1ccc(S(=O)(=O)C(C(=O)NO)C2CCNCC2)cc1` (stereo not shown) [Example 118, 2-{[4-(2-butynyloxy)phenyl]sulfonyl}-N-hydroxy-2-(4-piperidinyl) acetamide], the inhibition at 3 µM in the test with THP-1 cells amounted to 24%. The inhibition at 10 µM on MMP-13 (read-out: MMP13) turned out to be 69.5%; at MMP-1 it was 23.8%. Moreover, in test [1] (IC50 (nM) per footnote a), the IC50 was determined as 299 nM.

With `CC#CCOc1ccc(S(=O)(=O)C(C(=O)NO)C2CCN(Cc3ccc(OC)cc3)CC2)cc1` (stereo not shown) [Example 119, 2-{[4-(2-butynyloxy)phenyl]sulfonyl}-N-hydroxy-2-[1-(4-methoxybenzyl)-4-piperidinyl] acetamide], the inhibition at 3 µM in the test with THP-1 cells was 30%. For the same compound, the inhibition at 10 µM at MMP-13 (read-out: MMP13) came out at 50%; at MMP-1, 9%. Moreover, the IC50 in test [1] (IC50 (nM) per footnote a) is 263 nM.

As to `CC#CCOc1ccc(S(=O)(=O)C(C(=O)NO)C2CCN(C(=O)c3ccccc3)CC2)cc1` (stereo not shown) [Example 120, 2-(1-benzoyl-4-piperidinyl)-2-{[4-(2-butynyloxy)phenyl]sulfonyl}-N-hydroxyacetamide], in the test with THP-1 cells, the inhibition at 3 µM stood at 63%. The inhibition at 1 µM on MMP-13 (read-out: MMP13) amounted to 51%. The compound further returned an IC50 in test [1] (IC50 (nM) per footnote a) of 88.5 nM. Besides, the inhibition at 10 µM on MMP-1 came out at 24%.
